Data from patent US10093623B2, “Cyclic amides as MetAP-2 inhibitors” (MERCK PATENT GmbH, priority 2012, dated 2018).

target: MetAP-2 (Homo sapiens, UniProt P50579); assay: MetAP-2 activity measurement (coupled enzymatic reactions, Met-Arg-Ser substrate, dianisidine detection at 450 nm); type: biochemical; conditions: Inhibition of MetAP-2; read-out: IC50 enzyme
Procedure, shortened: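 Rate read from the linear part of the 450 nm absorbance trace. Dianisidine oxidation by peroxidase reports H2O2 made when amino acid oxidase acts on methionine cleaved from MAS tripeptide, one mol dye per mol Met; extinction coefficient gives molar activity.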

Sequence of MetAP-2 (P50579 whole entry, species assumed): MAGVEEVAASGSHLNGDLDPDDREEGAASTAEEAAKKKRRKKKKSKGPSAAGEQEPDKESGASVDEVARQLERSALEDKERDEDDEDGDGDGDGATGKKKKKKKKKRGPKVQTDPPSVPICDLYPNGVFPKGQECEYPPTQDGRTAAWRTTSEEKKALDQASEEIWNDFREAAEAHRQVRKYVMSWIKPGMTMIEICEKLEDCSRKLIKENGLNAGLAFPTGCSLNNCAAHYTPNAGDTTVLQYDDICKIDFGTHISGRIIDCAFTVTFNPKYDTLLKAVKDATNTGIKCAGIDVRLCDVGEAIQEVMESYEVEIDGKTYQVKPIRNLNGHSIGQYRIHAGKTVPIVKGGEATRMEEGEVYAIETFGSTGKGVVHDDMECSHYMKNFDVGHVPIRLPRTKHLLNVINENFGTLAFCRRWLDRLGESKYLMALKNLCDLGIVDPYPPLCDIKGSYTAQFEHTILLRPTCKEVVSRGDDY

Structure (SMILES) | IC50
O=C1N(c2ccccc2)CCC1(O)CNCc1cccc(F)c1 (stereo not shown) [B48, 3-[(3-Fluorobenzylamino)-methyl]-3-hydroxy-1-phenyl-pyrrolidin-2-one] | 1000 to 10000 nM
O=C1CCc2cc(NC(=O)C3(O)CCN(c4ccc5c(c4)CCC(=O)N5)C3=O)ccc2N1 (stereo not shown) [B50, N-(2-Oxo-1,2,3,4-tetrahydro-quinolin-6-yl)-3-hydroxy-2-oxo-1-(2-oxo-1,2,3,4-tetrahydro-quinolin-6-yl)pyrrolidine-3-carboxamide] | > 10000 nM
CC(C)(C)OC(=O)N1CCC(O)(C(=O)OCc2ccccc2)C1=O (stereo not shown) [B51, 3-Benzyl 1-tert-butyl 3-hydroxy-2-oxopyrrolidine-1,3-dicarboxylate] | > 10000 nM
CC(C)OC(=O)C1(O)CCN(C(=O)OCc2ccccc2)C1=O (stereo not shown) [B53, 1-Benzyl 3-isopropyl 3-hydroxy-2-oxopyrrolidine-1,3-dicarboxylate] | > 10000 nM
O=C1N(Cc2ccccc2)CCC[C@@]1(O)CNCc1cc(F)cc(Cl)c1 [B55, (R)-1-Benzyl-3-[(3-chloro-5-fluorobenzylamino)methyl]-3-hydroxypiperidin-2-one] | 1000 to 10000 nM
O=C1CCc2cc(N3CC[C@@](O)(C(=O)NCc4cccc(F)c4)C3=O)ccc2N1 [B57, N-(3-Fluorobenzyl)-(R)-3-hydroxy-2-oxo-1-(2-oxo-1,2,3,4-tetrahydroquinolin-6-yl)-pyrrolidine-3-carboxamide] | > 10000 nM
O=C1N(c2ccccc2)CC[C@@]1(O)CNCc1cc(F)cc(Cl)c1 [B58, (R)-3-[(3-Chloro-5-fluorobenzylamino)methyl]-3-hydroxy-1-phenylpyrrolidin-2-one] | 1000 to 10000 nM
Cc1cc2cc(N3CC[C@@](O)(C(=O)NCc4cc(F)cc(Cl)c4)C3=O)cnc2[nH]1 [B61, N-(3-Chloro-5-fluorobenzyl)-(R)-3-hydroxy-1-(2-methyl-1H-pyrrolo[2,3-b]pyridin-5-yl)-2-oxo-pyrrolidine-3-carboxamide] | 1000 to 10000 nM
O=C1N(CC2CCCCC2)CCC[C@@]1(O)CNCc1cc(F)cc(Cl)c1 [B64, (R)-3-[(3-Chloro-5-fluorobenzylamino)methyl]-1-cyclohexylmethyl-3-hydroxy-piperidin-2-one] | > 10000 nM
O=C(NCc1cc(F)cc(Cl)c1)C1(O)CCCN(c2cc(C(F)(F)F)ccc2F)C1=O (stereo not shown) [B67, N-(3-Chloro-5-fluorobenzyl)-1-(2-fluoro-5-trifluoromethyl-phenyl)-3-hydroxy-2-oxo-piperidine-3-carboxamide] | 1000 to 10000 nM
O=C1CCc2cc(N3CCCC(O)(CNCc4cc(F)cc(Cl)c4)C3=O)ccc2N1 (stereo not shown) [B68, 6-{3-[(3-Chloro-5-fluorobenzylamino)methyl]-3-hydroxy-2-oxopiperidin-1-yl}-3,4-dihydro-1H-quinolin-2-one] | 1000 to 10000 nM
O=C(NCc1cc(F)cc(Cl)c1)[C@]1(O)CCN(c2ccc3[nH]cc(C(F)(F)F)c3c2)C1=O [B73, N-(3-Chloro-5-fluorobenzyl)-(R)-3-hydroxy-2-oxo-1-(3-trifluoro-methyl-1H-indol-5-yl)pyrrolidine-3-carboxamide] | > 10000 nM
NC(=O)c1cc2cc(N3CC[C@@](O)(C(=O)NCc4cc(F)cc(Cl)c4)C3=O)ccc2[nH]1 [B79, 5-[(R)-3-(3-Chloro-5-fluorobenzylcarbamoyl)-3-hydroxy-2-oxopyrrolidin-1-yl]-1H-indole-2-carboxamide] | 1000 to 10000 nM
CCOC(=O)c1cc2cc(N3CC[C@](O)(C(=O)NCc4cc(F)cc(Cl)c4)C3=O)ccc2[nH]1 [B80, Ethyl 5-[(S)-3-(3-chloro-5-fluorobenzylcarbamoyl)-3-hydroxy-2-oxopyrrolidin-1-yl]-1H-indole-2-carboxylate] | 10 to 1000 nM
CCOC(=O)c1cc2cc(N3CC[C@@](O)(C(=O)NCc4cc(F)cc(Cl)c4)C3=O)ccc2[nH]1 [B81, Ethyl 5-[(R)-3-(3-chloro-5-fluorobenzylcarbamoyl)-3-hydroxy-2-oxopyrrolidin-1-yl]-1H-indole-2-carboxylate] | > 10000 nM
COCCn1cc(N2CCC(O)(C(=O)NCc3cc(F)cc(Cl)c3)C2=O)cn1 (stereo not shown) [B82, N-(3-Chloro-5-fluorobenzyl)-3-hydroxy-1-[1-(2-methoxyethyl)-1H-pyrazol-4-yl]-2-oxo-pyrrolidine-3-carboxamide] | 10 to 1000 nM
O=C(NCc1cc(F)cc(Cl)c1)[C@@]1(O)CCN(c2cnc3[nH]c(C(F)(F)F)cc3c2)C1=O [B83, N-(3-Chloro-5-fluorobenzyl)-(S)-3-hydroxy-2-oxo-1-(2-trifluoromethyl-1H-pyrrolo-[2,3-b]pyridin-5-yl)pyrrolidine-3-carboxamide] | 10 to 1000 nM
O=C(O)c1cc2cc(N3CC[C@](O)(C(=O)NCc4cc(F)cc(Cl)c4)C3=O)ccc2[nH]1 [B84, 5-[(S)-3-(3-Chloro-5-fluorobenzylcarbamoyl)-3-hydroxy-2-oxopyrrolidin-1-yl]-1H-indole-2-carboxylic acid] | 10 to 1000 nM
O=C(O)c1cc2cc(N3CC[C@@](O)(C(=O)NCc4cc(F)cc(Cl)c4)C3=O)ccc2[nH]1 [B85, 5-[(R)-3-(3-Chloro-5-fluorobenzylcarbamoyl)-3-hydroxy-2-oxopyrrolidin-1-yl]-1H-indole-2-carboxylic acid] | > 10000 nM

Next, values leading:

IC50 | Structure (SMILES)
10 to 1000 nM | Cc1ccc(CNCC2(O)CCN(c3ccccc3)C2=O)cc1 (stereo not shown) [B49, 3-Hydroxy-3-[(4-methyl-benzylamino)methyl]-1-phenyl-pyrrolidin-2-one]
10 to 1000 nM | O=C(NCc1cc(F)cc(Cl)c1)[C@@]1(O)CCN(c2cc(C(F)(F)F)ccn2)C1=O [B52, N-(3-Chloro-5-fluorobenzyl)-(S)-3-hydroxy-2-oxo-1-(4-trifluoromethylpyridin-2-yl)-pyrrolidine-3-carboxamide]
10 to 1000 nM | O=C1N(Cc2ccccc2)CCC[C@]1(O)CNCc1cc(F)cc(Cl)c1 [B54, (S)-1-Benzyl-3-[(3-chloro-5-fluorobenzylamino)methyl]-3-hydroxypiperidin-2-one]
10 to 1000 nM | O=C1CCc2cc(N3CC[C@](O)(C(=O)NCc4cccc(F)c4)C3=O)ccc2N1 [B56, N-(3-Fluorobenzyl)-(S)-3-hydroxy-2-oxo-1-(2-oxo-1,2,3,4-tetrahydroquinolin-6-yl)-pyrrolidine-3-carboxamide]
10 to 1000 nM | O=C1N(c2ccccc2)CC[C@]1(O)CNCc1cc(F)cc(Cl)c1 [B59, (S)-3-[(3-Chloro-5-fluorobenzylamino)methyl]-3-hydroxy-1-phenylpyrrolidin-2-one]
10 to 1000 nM | O=C(NCc1cc(F)cc(Cl)c1)[C@@]1(O)CCN(Cc2n[nH]c3ccccc23)C1=O [B60, N-(3-Chloro-5-fluorobenzyl)-(S)-3-hydroxy-1-(1H-indazol-3-ylmethyl)-2-oxopyrrolidine-3-carboxamide]
10 to 1000 nM | Cc1cc2cc(N3CC[C@](O)(C(=O)NCc4cc(F)cc(Cl)c4)C3=O)cnc2[nH]1 [B62, N-(3-Chloro-5-fluorobenzyl)-(S)-3-hydroxy-1-(2-methyl-1H-pyrrolo[2,3-b]pyridin-5-yl)-2-oxo-pyrrolidine-3-carboxamide]
10 to 1000 nM | O=C1N(CC2CCCCC2)CCC[C@]1(O)CNCc1cc(F)cc(Cl)c1 [B63, (S)-3-[(3-Chloro-5-fluorobenzylamino)methyl]-1-cyclohexylmethyl-3-hydroxy-piperidin-2-one]
10 to 1000 nM | O=C(NCc1cc(F)cc(Cl)c1)[C@@]1(O)CCN(c2ccc(C(F)(F)F)cc2F)C1=O [B65, N-(3-Chloro-5-fluorobenzyl)-(S)-1-(2-fluoro-4-trifluoromethyl-phenyl)-3-hydroxy-2-oxo-pyrrolidine-3-carboxamide]
10 to 1000 nM | Cc1ccc(N2CC[C@](O)(C(=O)NCc3cc(F)cc(Cl)c3)C2=O)c(F)c1 [B66, N-(3-Chloro-5-fluorobenzyl)-(S)-1-(2-fluoro-4-methylphenyl)-3-hydroxy-2-oxopyrrolidine-3-carboxamide]
10 to 1000 nM | O=C1CCc2cc(CN3CCC(O)(C(=O)NCc4cc(F)cc(Cl)c4)C3=O)ccc2N1 (stereo not shown) [B69, N-(3-Chloro-5-fluorobenzyl)-3-hydroxy-2-oxo-1-(2-oxo-1,2,3,4-tetrahydroquinolin-6-ylmethyl)-pyrrolidine-3-carboxamide]
10 to 1000 nM | NC(=O)c1ccc(F)c(N2CC[C@](O)(C(=O)NCc3cc(F)cc(Cl)c3)C2=O)c1 [B70, N-(3-Chloro-5-fluorobenzyl)-(S)-1-(5-carbamoyl-2-fluorophenyl)-3-hydroxy-2-oxopyrrolidine-3-carboxamide]
10 to 1000 nM | O=C(NCc1cc(F)cc(Cl)c1)[C@@]1(O)CCN(c2ccc3[nH]c(=O)[nH]c3c2)C1=O [B71, N-(3-Chloro-5-fluorobenzyl)-(S)-3-hydroxy-2-oxo-1-(2-oxo-2,3-dihydro-1H-benzimidazol-5-yl)-pyrrolidine-3-carboxamide]
10 to 1000 nM | O=C(NCc1cc(F)cc(Cl)c1)[C@@]1(O)CCN(c2ccc3[nH]cc(C(F)(F)F)c3c2)C1=O [B74, N-(3-Chloro-5-fluorobenzyl)-(S)-3-hydroxy-2-oxo-1-(3-trifluoro-methyl-1H-indol-5-yl)pyrrolidine-3-carboxamide]
10 to 1000 nM | O=C(NCc1cc(F)cc(Cl)c1)[C@@]1(O)CCN(c2cnc3[nH]ncc3c2)C1=O [B75, N-(3-Chloro-5-fluorobenzyl)-(S)-3-hydroxy-2-oxo-1-(1H-pyrazolo[3,4-b]pyridin-5-yl)-pyrrolidine-3-carboxamide]
10 to 1000 nM | O=C(NCc1cc(F)cc(Cl)c1)C1(O)CCN(c2cnc3[nH]c(C(F)(F)F)cc3c2)C1=O (stereo not shown) [B76, N-(3-Chloro-5-fluorobenzyl)-3-hydroxy-2-oxo-1-(2-trifluoro-methyl-1H-pyrrolo[2,3-b]pyridin-5-yl)pyrrolidine-3-carboxamide]
10 to 1000 nM | O=C(NCc1cc(F)cc(Cl)c1)[C@@]1(O)CCN(c2ccc3[nH]c(=O)sc3c2)C1=O [B77, N-(3-Chloro-5-fluorobenzyl)-(S)-3-hydroxy-2-oxo-1-(2-oxo-2,3-dihydrobenzothiazol-6-yl)-pyrrolidine-3-carboxamide]
10 to 1000 nM | NC(=O)c1cc2cc(N3CC[C@](O)(C(=O)NCc4cc(F)cc(Cl)c4)C3=O)ccc2[nH]1 [B78, 5-[(S)-3-(3-Chloro-5-fluorobenzylcarbamoyl)-3-hydroxy-2-oxopyrrolidin-1-yl]-1H-indole-2-carboxamide]
